Assay [1] addresses T1, human CA-IX (Homo sapiens, UniProt Q16790).
T1 construct: purchased Acro CA9-H82E3
The assay is described as follows: Surface Plasmon Resonance (SPR) binding kinetics to recombinant human CA-IX (Biacore 8K, single-cycle kinetics, 1:1 binding model). The conditions noted are these: for pKd: SPR, 25° C., pH 7.4, read-out: CAIX KD. How it is done:
(§1) G1. Surface Plasmon Resonance Assay Conditions for hCA-IX and hCA-XII
(§2) Surface Plasmon Resonance (SPR) experiments were conducted on a Biacore 8K instrument (Cytiva, Marlborough, MA) to determine the binding kinetics of the compound to recombinant human CA-IX (Acro, CA9-H82E3) and CA-XII (Creative BioMart, CA12-261H) proteins. The ligands were diluted to 10 μg/mL in PBS-P+ buffer (20 mM phosphate buffer, pH 7.4, with 2.7 mM KCl, 137 mM NaCl, and 0.05% Tween 20) and captured on Series S Streptavidin Sensor Chips (Cytiva, 29699621) to 1200-1800 response units (RU) using a flow rate of 5 μL/min and injection times of 180 seconds for human CA-IX and 75 seconds for human CA-XII. Analyte binding was evaluated using a single-cycle kinetics method over 9 analyte concentrations (100-0.39 nM) in PBS-P+ buffer with 1% DMSO using a 50 μL/min. flow rate, 120 second association time, and 1200 second dissociation time. The flow cell temperature was set to 25° C. Analyte binding curves were fit to a 1:1 binding kinetic model in Biacore Insight Evaluation software (version 4.0.8.20368) following reference flow cell subtraction and DMSO correction to derive the association and dissociation binding constants.

For assay [2], the target named is T2, human CA-XII (Homo sapiens, UniProt O43570).
T2 construct: purchased Creative BioMart CA12-261H
The assay can be described thus: Surface Plasmon Resonance (SPR) binding kinetics to recombinant human CA-XII (Biacore 8K, single-cycle kinetics, 1:1 binding model). The conditions noted are these: pH 7.4, read-out: CAXII KD. How it is done: as §1, §2
Background: SPR reads the build-up and loss of mass on a sensor chip optically.

pKd: −log10 of the molar value. Like-named read-outs stand apart in the source and are kept apart here.

By pKd is commonly meant the negative decadic logarithm of the Kd, by convention in mol/L.

T2 sequence (O43570 25-354): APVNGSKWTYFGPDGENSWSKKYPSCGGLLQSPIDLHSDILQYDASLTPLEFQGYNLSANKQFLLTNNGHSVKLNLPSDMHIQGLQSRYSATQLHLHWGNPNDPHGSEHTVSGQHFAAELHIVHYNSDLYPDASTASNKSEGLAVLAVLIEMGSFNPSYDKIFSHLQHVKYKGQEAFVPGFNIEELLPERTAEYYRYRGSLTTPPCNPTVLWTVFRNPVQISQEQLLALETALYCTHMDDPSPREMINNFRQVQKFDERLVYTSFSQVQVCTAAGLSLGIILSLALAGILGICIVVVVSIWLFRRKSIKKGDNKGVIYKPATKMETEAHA

With `CC(CCC(=O)N[C@@H](CC(=O)N[C@@H](CC(=O)NC1(C(=O)NCCOCCOCCNC(=O)CN2CCN(CC(=O)O)CCN(CC(=O)O)CCN(CC(=O)O)CC2)CN(C(=O)Cn2cc(CCCCC(=O)Nc3nnc(S(N)(=O)=O)s3)nn2)C1)C(=O)O)C(=O)O)(c1ccc(O)cc1)c1ccc(O)cc1.[Lu+3]` [Compound 103.4], the pKd in assay [1] (Chelated Metal: Lu-175) was 8.00 to 8.60; in assay [2] (Chelated Metal: Lu-175, 25° C.) it was 8.00 to 8.60.

For the molecule `CC(CCCC(=O)N1CCOC[C@H]1C(=O)N[C@@H](CC(=O)N1CCN(C(=O)CN2CCN(CC(=O)O)CCN(CC(=O)O)CCN(CC(=O)O)CC2)C[C@H]1C(=O)NCCn1cc(C23CC(C(=O)Nc4nnc(S(N)(=O)=O)s4)(C2)C3)nn1)C(=O)O)(c1ccc(O)cc1)c1ccc(O)cc1.[Lu+3]` [Compound 107.29], the pKd is > 9.00 in assay [1] (Chelated Metal: Lu-175) and < 8.00 in assay [2] (Chelated Metal: Lu-175, 25° C.).

For `CC(CCCC(=O)N1CCC(C(=O)O)(C(=O)NCC(=O)NC2(C(=O)NCCn3cc(C45CC(C(=O)Nc6nnc(S(N)(=O)=O)s6)(C4)C5)nn3)CCN(C(=O)CN3CCN(CC(=O)O)CCN(CC(=O)O)CCN(CC(=O)O)CC3)CC2)CC1)(c1ccc(O)cc1)c1ccc(O)cc1.[Lu+3]` (single isomer, unassigned) [Compound 117.1], the pKd was > 9.00 in assay [1] (Chelated Metal: Lu-175) and < 8.00 in assay [2] (Chelated Metal: Lu-175, 25° C.).

With `NS(=O)(=O)c1nnc(NC(=O)C23CCC(c4cn(CCNC(=O)[C@@H]5CN(C(=O)CN6CCN(CC(=O)O)CCN(CC(=O)O)CCN(CC(=O)O)CC6)CCN5C(=O)CC[C@H](NC(=O)C[C@H](NC(=O)CCc5ccc(O)cc5)C(=O)O)C(=O)O)nn4)(CC2)CC3)s1.[Lu+3]` [Compound 109.43], the pKd in assay [1] (Chelated Metal: Lu-175) was > 9.00; in assay [2] (Chelated Metal: Lu-175, 25° C.), > 9.00.

`Cc1c(C(F)(F)F)n[nH]c1C(=O)N[C@@H](CC(=O)N[C@@H](CCC(=O)N1CCN(C(=O)CN2CCN(CC(=O)O)CCN(CC(=O)O)CCN(CC(=O)O)CC2)C[C@H]1C(=O)NCCn1cc(C23CCC(C(=O)Nc4nnc(S(N)(=O)=O)s4)(CC2)CC3)nn1)C(=O)O)C(=O)O.[Lu+3]` [Compound 109.49]: the pKd in assay [1] (Chelated Metal: Lu-175) is > 9.00; in assay [2] (Chelated Metal: Lu-175, 25° C.), > 9.00.

On to `NS(=O)(=O)c1nnc(NC(=O)C23CC(c4cn(C[C@H]5CN(C(=O)CN6CCN(CC(=O)O)CCN(CC(=O)O)CCN(CC(=O)O)CC6)CCN5C(=O)[C@@H]5COCCN5C(=O)Cc5n[nH]c6ccccc56)nn4)(C2)C3)s1.[Lu+3]` [Compound 114.2], for which the pKd in assay [1] (Chelated Metal: Lu-175) is 8.60 to 9.00; in assay [2] (Chelated Metal: Lu-175, 25° C.), < 8.00.

In the case of `CC(CCNC(=O)N1CCC(C(N)=O)(C(=O)NCC(=O)N2CCN(C(=O)CN3CCN(CC(=O)O)CCN(CC(=O)O)CCN(CC(=O)O)CC3)C[C@H]2C(=O)NCCn2cc(C34CC(C(=O)Nc5nnc(S(N)(=O)=O)s5)(C3)C4)nn2)CC1)(c1ccc(O)cc1)c1ccc(O)cc1.[Lu+3]` [Compound 107.56], the negative logarithm of the Kd (pKd) in assay [1] (Chelated Metal: Lu-175) is 8.60 to 9.00; in assay [2] (Chelated Metal: Lu-175, 25° C.), < 8.00.

Turning to `CC(CCC(=O)N[C@@H](CC(=O)N[C@@H](CC(=O)N1CCN(C(=O)CN2CCN(CC(=O)O)CCN(CC(=O)O)CCN(CC(=O)O)CC2)C[C@@H]1CCCCn1cc(C23CCC(C(=O)Nc4nnc(S(N)(=O)=O)s4)(CC2)C3)nn1)C(=O)O)C(=O)O)(c1ccc(O)cc1)c1ccc(O)cc1` [Compound 104.2], the pKd in assay [1] (Chelated Metal: None) was > 9.00; in assay [2] (Chelated Metal: None, 25° C.), > 9.00. In addition, the “Ratio (CAXII/CAIX)” value in assay [1] (KD ratio CAXII/CAIX, Chelated Metal: None) is “* (1 < * < 5)”.

As to `NS(=O)(=O)c1nnc(NC(=O)C23CC(c4cn(C[C@H]5CN(C(=O)CN6CCN(CC(=O)O)CCN(CC(=O)O)CCN(CC(=O)O)CC6)CCN5C(=O)C[C@H](NC(=O)[C@@H]5COCCN5C(=O)Cc5n[nH]c6ccccc56)C(=O)O)nn4)(C2)C3)s1.[Lu+3]` [Compound 114.1], the negative-log Kd (pKd) in assay [1] (Chelated Metal: Lu-175) is 8.60 to 9.00; in assay [2] (Chelated Metal: Lu-175, 25° C.), < 8.00.

Take `NS(=O)(=O)c1nnc(NC(=O)C23CCC(c4cn(CCNC(=O)[C@@H]5CN(C(=O)CN6CCN(CC(=O)O)CCN(CC(=O)O)CCN(CC(=O)O)CC6)CCN5C(=O)CC[C@H](NC(=O)C[C@H](NC(=O)c5ccc(C6CC6)cc5)C(=O)O)C(=O)O)nn4)(CC2)CC3)s1.[Lu+3]` [Compound 109.54]: the negative-log Kd (pKd) is > 9.00 in assay [1] (Chelated Metal: Lu-175) and > 9.00 in assay [2] (Chelated Metal: Lu-175, 25° C.).

Regarding `NS(=O)(=O)c1nnc(NC(=O)C23CCC(c4cn(CCNC(=O)[C@@H]5CN(C(=O)CN6CCN(CC(=O)O)CCN(CC(=O)O)CCN(CC(=O)O)CC6)CCN5C(=O)CC[C@H](NC(=O)C[C@H](NC(=O)c5ccc(C6CCCCC6)cc5)C(=O)O)C(=O)O)nn4)(CC2)CC3)s1.[Lu+3]` [Compound 109.55], the pKd in assay [1] (Chelated Metal: Lu-175) was > 9.00; in assay [2] (Chelated Metal: Lu-175, 25° C.) it was > 9.00.

As for `NS(=O)(=O)c1nnc(NC(=O)C23CC(c4cn(CCNC(=O)[C@@H]5CN(C(=O)CN6CCN(CC(=O)O)CCN(CC(=O)O)CCN(CC(=O)O)CC6)CCN5C(=O)C[C@H](Nc5ncc(C(=O)NCCc6ccc(C7CC7)cc6)cn5)C(=O)O)nn4)(C2)C3)s1.[Lu+3]` [Compound 111.11], the pKd in assay [1] (Chelated Metal: Lu-175) is 8.60 to 9.00; in assay [2] (Chelated Metal: Lu-175, 25° C.), < 8.00.

`NS(=O)(=O)c1nnc(NC(=O)C23CCC(c4cn(CCNC(=O)[C@@H]5CN(C(=O)CN6CCN(CC(=O)O)CCN(CC(=O)O)CCN(CC(=O)O)CC6)CCN5C(=O)CC[C@H](NC(=O)C[C@H](NC(=O)c5n[nH]c6ccc(O)cc56)C(=O)O)C(=O)O)nn4)(CC2)CC3)s1.[Lu+3]` [Compound 109.45]: the pKd in assay [1] (Chelated Metal: Lu-175) is > 9.00; in assay [2] (Chelated Metal: Lu-175, 25° C.) it was > 9.00.

With `CCCCNc1c(F)c(S(N)(=O)=O)c(F)c(F)c1S(=O)(=O)CCOCc1cn(CCNC(=O)[C@H]2CN(C(=O)CN3CCN(CC(=O)O)CCN(CC(=O)O)CCN(CC(=O)O)CC3)CCN2C(=O)C[C@H](NC(=O)[C@@H]2COCCN2C(=O)CCCc2ccc(O)cc2)C(=O)O)nn1.[Lu+3]` [Compound 107.54], the pKd in assay [1] (Chelated Metal: Lu-175) was 8.00 to 8.60; in assay [2] (Chelated Metal: Lu-175, 25° C.), < 8.00.

Take `NS(=O)(=O)c1nnc(NC(=O)C23CCC(c4cn(CCNC(=O)[C@@H]5CN(C(=O)CN6CCN(CC(=O)O)CCN(CC(=O)O)CCN(CC(=O)O)CC6)CCN5C(=O)CC[C@H](NC(=O)C[C@H](NC(=O)CCC5CCCCCC5)C(=O)O)C(=O)O)nn4)(CC2)CC3)s1.[Lu+3]` [Compound 109.46]: the pKd in assay [1] (Chelated Metal: Lu-175) is > 9.00; in assay [2] (Chelated Metal: Lu-175, 25° C.), > 9.00.

For the molecule `NS(=O)(=O)c1nnc(NC(=O)C23CC(c4cn(CCNC(=O)[C@@H]5CN(C(=O)CN6CCN(CC(=O)O)CCN(CC(=O)O)CCN(CC(=O)O)CC6)CCN5C(=O)C[C@H](NC(=O)C[C@H](NC(=O)CCCc5ccc6c(c5)CCCC6)C(=O)O)C(=O)O)nn4)(C2)C3)s1.[Lu+3]` [Compound 109.36], the pKd is 8.60 to 9.00 in assay [1] (Chelated Metal: Lu-175) and 8.00 to 8.60 in assay [2] (Chelated Metal: Lu-175, 25° C.).

As to `NS(=O)(=O)c1nnc(NC(=O)C23CC(c4cn(CCNC(=O)[C@@H]5CN(C(=O)CN6CCN(CC(=O)O)CCN(CC(=O)O)CCN(CC(=O)O)CC6)CCN5C(=O)C[C@H](Nc5ncc(C(=O)NCc6ccc(C7CC7)cc6)cn5)C(=O)O)nn4)(C2)C3)s1.[Lu+3]` [Compound 111.3], the pKd in assay [1] (Chelated Metal: Lu-175) is 8.60 to 9.00; in assay [2] (Chelated Metal: Lu-175, 25° C.) it was < 8.00.

For the molecule `CC(CCCC(=O)N1CCC(C(N)=O)(C(=O)NCC(=O)N2CCN(C(=O)CN3CCN(CC(=O)O)CCN(CC(=O)O)CCN(CC(=O)O)CC3)C[C@@H]2C(=O)NCCn2nnc(C34CC(C(=O)Nc5nnc(S(N)(=O)=O)s5)(C3)C4)c2C(=O)O)CC1)(c1ccc(O)cc1)c1ccc(O)cc1.[Lu+3]` [Compound 107.59], the negative logarithm of the Kd (pKd) in assay [1] (Chelated Metal: Lu-175) was > 9.00; in assay [2] (Chelated Metal: Lu-175, 25° C.), < 8.00.

As to `CC(CC(=O)N1CCC(C(=O)O)(C(=O)NCC(=O)N[C@@H](CCCCn2cc(CCCC(=O)Nc3nnc(S(N)(=O)=O)s3)nn2)C(=O)NCCOCCOCCNC(=O)CN2CCN(CC(=O)O)CCN(CC(=O)O)CCN(CC(=O)O)CC2)CC1)(c1ccc(O)cc1)c1ccc(O)cc1.[Lu+3]` [Compound 102.4], the pKd in assay [1] (Chelated Metal: Lu-175) was > 9.00; in assay [2] (Chelated Metal: Lu-175, 25° C.) it was 8.00 to 8.60.
